# Measured values published in ChEMBL document CHEMBL1201862, “PubChem BioAssay data set” (2004).
#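 Growth conditions: 96-well plates. Treatment: test compound, 48 hours, 5 concentrations. Analysis: linear interpolation between bracketing concentrations; unreached endpoints set to highest concentration. GI50 marks 50% less growth.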 The source made the active and inactive calls. Cut-off read from the data, not from the text of the source: active = GI50 up to about 1.1 µM and inactive = higher.
# Tests used:
# Experiment in all cases: DTP human tumour cell line panel, 48 h
# A549 = test system: A549
# ACHN = test system: ACHN
# COLO 205 = test system: COLO 205
# DU-145 = test system: DU-145
# HCT-15 = test system: HCT-15
# HOP-62 = test system: HOP-62
# HT-29 = test system: HT-29
# IGROV-1 = test system: IGROV-1
# KM12 = test system: KM12
# M14 = test system: M14
# MCF7 = test system: MCF7
# MDA-MB-435 = test system: MDA-MB-435
# NCI-H522 = test system: NCI-H522
# NCI/ADR-RES = test system: NCI/ADR-RES
# OVCAR-8 = test system: OVCAR-8
# RXF 393 = test system: RXF 393
# SN12C = test system: SN12C
# A498 = test system: A498
# SK-MEL-2 = test system: SK-MEL-2
Compound,GI50 (A549),GI50 (ACHN),GI50 (COLO 205),GI50 (DU-145),GI50 (HCT-15),GI50 (HOP-62),GI50 (HT-29),GI50 (IGROV-1),GI50 (KM12),GI50 (M14),GI50 (MCF7),GI50 (MDA-MB-435),GI50 (NCI-H522),GI50 (NCI/ADR-RES),GI50 (OVCAR-8),GI50 (RXF 393),GI50 (SN12C),GI50 (A498),GI50 (SK-MEL-2)
CN1CN(c2ccccc2)C2(CCN(Cc3csc4ccccc34)CC2)C1=O,18.6 µM (inactive),17.6 µM (inactive),11.1 µM (inactive),49.2 µM (inactive),14.5 µM,19.6 µM (inactive),4.83 µM (inactive),10.8 µM (inactive),11.5 µM (inactive),13.7 µM (inactive),11.6 µM (inactive),14.3 µM (inactive),9.23 µM (inactive),8.97 µM (inactive),16.2 µM (inactive),16.6 µM (inactive),13.5 µM (inactive),,
Nc1nc(O)c2c(n1)NCN(CCCN1CCOCC1)C2,> 100 µM (inactive),> 100 µM (inactive),> 100 µM (inactive),> 100 µM (inactive),> 100 µM,> 100 µM (inactive),> 100 µM (inactive),> 100 µM (inactive),> 100 µM (inactive),> 100 µM (inactive),> 100 µM (inactive),> 100 µM (inactive),> 100 µM (inactive),> 100 µM (inactive),> 100 µM (inactive),,> 100 µM (inactive),> 100 µM (inactive),> 100 µM (inactive)
O=C1c2cccc3cc([N+](=O)[O-])cc(c23)C(=O)N1CCCN1CCN(CCCN2C(=O)c3cccc4cc([N+](=O)[O-])cc(c34)C2=O)CC1,0.0381 µM (active),< 0.01 µM (active),0.108 µM (active),,0.0495 µM,2.88 µM (inactive),< 0.01 µM (active),0.0628 µM (active),0.063 µM (active),0.706 µM (active),,,,,< 0.01 µM (active),0.0933 µM (active),0.08 µM (active),0.272 µM (active),0.23 µM (active)
O=C(c1cccc2ccccc12)C1(Br)S(=O)(=O)OCCOS1(=O)=O,> 100 µM (inactive),> 100 µM (inactive),> 100 µM (inactive),> 100 µM (inactive),> 100 µM,> 100 µM (inactive),> 100 µM (inactive),,> 100 µM (inactive),> 100 µM (inactive),> 100 µM (inactive),> 100 µM (inactive),,> 100 µM (inactive),> 100 µM (inactive),,> 100 µM (inactive),,> 100 µM (inactive)
CC(=O)c1cccc(Nc2nc3ccccc3c3[nH]c4ccccc4c23)c1,2.78 µM (inactive),3.63 µM (inactive),2.23 µM (inactive),4.93 µM (inactive),3.94 µM,7.31 µM (inactive),4.02 µM (inactive),2.88 µM (inactive),4.66 µM (inactive),8.79 µM (inactive),0.403 µM (active),4.48 µM (inactive),2.57 µM (inactive),4.05 µM (inactive),3.86 µM (inactive),,3.49 µM (inactive),,3.75 µM (inactive)
COc1ccc(-c2cc(-c3cc(C)cc(Br)c3O)no2)cc1,13.3 µM (inactive),8.36 µM (inactive),> 10 µM (inactive),16.6 µM (inactive),24.1 µM,8.67 µM (inactive),31.6 µM (inactive),10.8 µM (inactive),22.2 µM (inactive),25.6 µM (inactive),15.7 µM (inactive),15.9 µM (inactive),3.98 µM (inactive),7.67 µM (inactive),4.31 µM (inactive),,7.59 µM (inactive),3.03 µM (inactive),22.2 µM (inactive)
CCOC(=O)C(CO)c1nc2c([nH]c1=O)c(=O)n(C)c(=O)n2C (stereo not given),> 100 µM (inactive),> 100 µM (inactive),> 100 µM (inactive),> 100 µM (inactive),> 100 µM,> 100 µM (inactive),> 100 µM (inactive),> 100 µM (inactive),> 100 µM (inactive),> 100 µM (inactive),> 100 µM (inactive),> 100 µM (inactive),> 100 µM (inactive),> 100 µM (inactive),> 100 µM (inactive),,> 100 µM (inactive),0.608 µM (active),> 100 µM (inactive)
CN(N=O)C(=N)NC(=O)c1ccccc1,> 100 µM (inactive),> 100 µM (inactive),> 100 µM (inactive),,> 100 µM,> 100 µM (inactive),> 100 µM (inactive),> 100 µM (inactive),> 100 µM (inactive),> 100 µM (inactive),54.7 µM (inactive),> 100 µM (inactive),> 100 µM (inactive),> 100 µM (inactive),> 100 µM (inactive),> 100 µM (inactive),,> 100 µM (inactive),> 100 µM (inactive)
COC(=O)/C=C/c1ccc2nncnc2c1.COC(=O)/C=C\c1ccc2nncnc2c1,21.2 µM (inactive),> 100 µM (inactive),21.6 µM (inactive),28.7 µM (inactive),29 µM,70.5 µM (inactive),20 µM (inactive),85.5 µM (inactive),31.6 µM (inactive),21 µM (inactive),42.5 µM (inactive),17.9 µM (inactive),28.5 µM (inactive),62.4 µM (inactive),57.9 µM (inactive),,> 100 µM (inactive),71.8 µM (inactive),48.6 µM (inactive)
O=C1OC(C2Cc3ccc4c(c3C2=O)CCCC4)c2ccccc21 (stereo not given),35.9 µM (inactive),44.6 µM (inactive),46.8 µM (inactive),74.3 µM (inactive),28.4 µM,74.1 µM (inactive),36.6 µM (inactive),44.3 µM (inactive),44 µM (inactive),50.4 µM (inactive),33.9 µM (inactive),38.8 µM (inactive),48.4 µM (inactive),46 µM (inactive),43.9 µM (inactive),,28.5 µM (inactive),16.8 µM (inactive),24.5 µM (inactive)
CCOP(=O)(Cc1nc(C#N)c(N)o1)OCC,,> 100 µM (inactive),> 100 µM (inactive),> 100 µM (inactive),> 100 µM,> 100 µM (inactive),> 100 µM (inactive),> 100 µM (inactive),> 100 µM (inactive),,> 100 µM (inactive),> 100 µM (inactive),> 100 µM (inactive),,,> 100 µM (inactive),> 100 µM (inactive),> 100 µM (inactive),> 100 µM (inactive)
Cc1cn(CCCCOC(=O)NC(CCCNC(N)=O)C(=O)O)c(=O)[nH]c1=O (stereo not given),> 100 µM (inactive),> 100 µM (inactive),> 100 µM (inactive),> 100 µM (inactive),> 100 µM,> 100 µM (inactive),> 100 µM (inactive),> 100 µM (inactive),> 100 µM (inactive),> 100 µM (inactive),> 100 µM (inactive),> 100 µM (inactive),,> 100 µM (inactive),> 100 µM (inactive),> 100 µM (inactive),> 100 µM (inactive),,> 100 µM (inactive)
C=C1C[C@@H]2O[C@H]3[C@H]4[C@@H](C[C@@H](C)[C@@H](OC(C)=O)[C@H]42)[C@@H](C)CO[C@@]3(C)[C@H](OC(=O)CCCCCCC)CC1=O,18.4 µM (inactive),16 µM (inactive),13.9 µM (inactive),17.6 µM (inactive),14.1 µM,16 µM (inactive),20.9 µM (inactive),21.5 µM (inactive),12.1 µM (inactive),15.6 µM (inactive),18.5 µM (inactive),16.5 µM (inactive),19.6 µM (inactive),17.9 µM (inactive),13.6 µM (inactive),,16 µM (inactive),17.2 µM (inactive),19.2 µM (inactive)
O=C1CCCNn2c(nc3ncccc3c2=O)N1,> 100 µM (inactive),> 100 µM (inactive),> 100 µM (inactive),,> 100 µM,> 100 µM (inactive),> 100 µM (inactive),> 100 µM (inactive),78.7 µM (inactive),> 100 µM (inactive),> 100 µM (inactive),> 100 µM (inactive),> 100 µM (inactive),> 100 µM (inactive),> 100 µM (inactive),> 100 µM (inactive),,> 100 µM (inactive),> 100 µM (inactive)
CC(C)=CCC[C@](C)(O[C@@H]1O[C@H](CO)[C@@H](O)[C@H](O)[C@H]1O)[C@H]1CC[C@]2(C)[C@@H]1[C@H](O)C[C@@H]1[C@@]3(C)CC[C@@H](O)C(C)(C)[C@@H]3[C@@H](O[C@@H]3O[C@H](CO)[C@@H](O)[C@H](O)[C@H]3O)C[C@]12C.C[C@@H]1O[C@@H](O[C@H]2[C@H](O[C@H]3C[C@]4(C)[C@H](C[C@H](O)[C@@H]5[C@@H]([C@@]6(C)CC[C@H](C(C)(C)O)O6)CC[C@]54C)[C@@]4(C)CC[C@H](O)C(C)(C)[C@H]34)O[C@H](CO)[C@@H](O)[C@@H]2O)[C@H](O)[C@H](O)[C@H]1O,> 100 µM (inactive),> 100 µM (inactive),> 100 µM (inactive),> 100 µM (inactive),> 100 µM,> 100 µM (inactive),> 100 µM (inactive),> 100 µM (inactive),> 100 µM (inactive),> 100 µM (inactive),> 100 µM (inactive),> 100 µM (inactive),> 100 µM (inactive),,> 100 µM (inactive),> 100 µM (inactive),> 100 µM (inactive),> 100 µM (inactive),> 100 µM (inactive)
